In paper PMC10385824, “Antiproliferative and Tubulin-Destabilising Effects of 3-(Prop-1-en-2-yl)azetidin-2-Ones and Related Compounds in MCF-7 and MDA-MB-231 Breast Cancer Cells” (Pharmaceuticals, 2023):

Tested on: microtubule network in MCF-7 cells
Assay: Immunofluorescence confocal microscopy
Type: cell-based, human
Details: 16 h
Experimental: CA-4 and β-lactam 9q depolymerise the microtubule network in MCF-7 cells. […] After 16 h, the cells were fixed in 4% paraformaldehyde and stained with mouse monoclonal anti-α-tubulin−FITC antibody (clone DM1A) (green), Alexa Fluor 488 dye, and counterstained with DAPI (blue). The confocal images were obtained by Leica SP8 confocal microscopy with Leica application suite X software. Representative confocal micrograph images of three separate experiments are shown above [scale bar: […]].
The effects of β-lactam 9q on MCF-7 cytoskeleton were determined using confocal microscopy as previously described. MCF-7 cells were seeded at 1 × 10^5 cells/mL in glass slides with eight chambers (BD Biosciences, San Jose, CA, USA). […] Following treatment, cells were gently washed in PBS, fixed for 20 min with 4% paraformaldehyde in PBS and permeabilised in 0.5% Triton X-100. The cells were then washed with PBS-T (PBS containing 0.1% Tween), blocked in 5% bovine serum albumin diluted in PBS-T and incubated with mouse monoclonal anti-α-tubulin-FITC antibody (clone DM1A) (Sigma, Milwaulkee, WI, USA) (1:100) for 2 h at 20 °C. The cells were washed again with PBS-T and incubated with Alexa Fluor 488 dye (1:450) for 1 h at 20 °C. Following washes in PBST, the cells were mounted in Ultra Cruz Mounting Media (Santa Cruz Biotechnology, Santa Cruz, CA, USA), which contained 4,6-diamino-2-phenolindol dihydrochloride (DAPI). The immunofluorescence cell images were captured by Leica SP8 confocal microscopy and analysed with Leica application suite X software. Microscopy experiments were performed on three independent occasions, and the images for these experiments were obtained on the same day using identical conditions.

**Q.** For C=C(C)C1C(=O)N(c2cc(OC)c(OC)c(OC)c2)C1c1ccc(OC)c(O)c1 (stereo not shown) [9q, 4-(3-Hydroxy-4-methoxyphenyl)-1-(3,4,5-trimethoxyphenyl)-3-(prop-1-en-2-yl)azetidin-2-one], which “effect on microtubule network” value is on record?
**A.** microtubule formation was inhibited and resulted in depolymerised microtubules
